Laboratory results from ChEMBL document CHEMBL5505996, “Discovery of novel osthole derivatives exerting anti-inflammatory effect on DSS-induced ulcerative colitis and LPS-induced acute lung injury in mice” (Eur J Med Chem, 2024).
Active and inactive are the calls of the source. The rule behind the calls is not given here.

How the values were obtained:
[1] = molecular target: Mitogen-activated protein kinase kinase kinase 7 (Homo sapiens) (UniProt O43318); test: Inhibition of TAK1 (unknown origin) at 10 uM relative to control
[2] = Acute toxicity in ICR mouse assessed as pathological changes in heart at 500 mg/kg, po measured daily for 10 days by H and E staining based analysis; type: organism-based; details: in vivo, 240 h, time 10 day
[3] = system: Mus musculus; test: Antiinflammatory activity against C57BL/6 mouse model of DSS induced ulcerative colitis assessed as reversal of weight loss at 20 mg/kg, po administered daily for 10 days; type: functional, organism-based; details: time 10.0 day
[4] = system: RAW264.7; test: Antiinflammatory activity against LPS-induced mouse RAW264.7 cells assessed as inhibition of TNF-alpha release pretreated for 30 mins followed by LPS stimulation and measured after 24 hrs by ELISA; type: functional, cell-based
[5] = system: Mus musculus; test: (§1) Antiinflammatory activity against C57BL/6 mouse model of LPS induced acute lung injury assessed as reduction in pulmonary edema by measuring reduction in lung wet/dry ratio at 20 mg/kg, po administered every 12 hrs for 3 times followed by LPS stimulation for 6 hrs starting from 30 mins post last dose; type: functional, organism-based; details: time 42.5 hrs
[6] = system: RAW264.7; test: Potency index, ratio of osthole IC50 to test compound IC50 for antiinflammatory activity against LPS-induced mouse RAW264.7 cells assessed as inhibition of IL-6 release pretreated for 30 mins followed by LPS stimulation and measured after 24 hrs by ELISA; type: functional; details: time 24.5 hrs
[7] = Tmax in male Sprague-Dawley rat at 10 mg/kg, po by UPLC-MS/MS analysis; type: ADME, organism-based; details: in vivo
[8] = system: Mus musculus; test: Antiinflammatory activity against C57BL/6 mouse model of DSS induced ulcerative colitis assessed as protection against mucosal damage at 20 mg/kg, po administered daily for 10 days by H and E staining based analysis; type: functional, organism-based; details: time 10.0 day
[9] = system: J774.A1; test: Inhibition of MAPK signaling pathway in LPS-stimulated mouse J774.A1 cells assessed as reduction in p38 phosphorylation at 10 uM pretreated for 2 hrs followed by LPS stimulation and measured after 30 mins by Western blot analysis; type: cell-based; details: time 2.5 hrs
[10] = Acute toxicity in ICR mouse assessed as pathological changes in kidney at 500 mg/kg, po measured daily for 10 days by H and E staining based analysis; type: organism-based; details: in vivo, 240 h, time 10 day
[11] = Acute toxicity in ICR mouse assessed as pathological changes in spleen at 500 mg/kg, po measured daily for 10 days by H and E staining based analysis; type: organism-based; details: in vivo, 240 h, time 10 day
[12] = system: Mus musculus; test: as §1, with “inflammatory cell infiltration” for “pulmonary edema by measuring reduction in lung wet/dry ratio”, “dose by H and E staining based analysis” for “dose”; type: functional, organism-based; details: time 42.5 hrs
[13] = system: J774.A1; test: Inhibition of MAPK signaling pathway in LPS-stimulated mouse J774.A1 cells assessed as reduction in ERK1/2 phosphorylation at 10 uM pretreated for 2 hrs followed by LPS stimulation and measured after 30 mins by Western blot analysis; type: cell-based; details: time 2.5 hrs
[14] = system: Mus musculus; test: Antiinflammatory activity against C57BL/6 mouse model of DSS induced ulcerative colitis assessed as protection against goblet cell depletion at 20 mg/kg, po administered daily for 10 days by H and E staining based analysis; type: functional, organism-based; details: time 10.0 day
[15] = system: THP-1; test: Antiinflammatory activity against LPS-induced PMA-differentiated human THP-1 cells assessed as inhibition of TNF-alpha release pretreated for 30 mins followed by LPS stimulation and measured after 24 hrs by ELISA; type: functional, cell-based
[16] = AUC (0 to t) in male Sprague-Dawley rat at 10 mg/kg, po by UPLC-MS/MS analysis; type: ADME, organism-based; details: in vivo

Sequence of Mitogen-activated protein kinase kinase kinase 7 (Homo sapiens) (O43318 whole entry, looked up): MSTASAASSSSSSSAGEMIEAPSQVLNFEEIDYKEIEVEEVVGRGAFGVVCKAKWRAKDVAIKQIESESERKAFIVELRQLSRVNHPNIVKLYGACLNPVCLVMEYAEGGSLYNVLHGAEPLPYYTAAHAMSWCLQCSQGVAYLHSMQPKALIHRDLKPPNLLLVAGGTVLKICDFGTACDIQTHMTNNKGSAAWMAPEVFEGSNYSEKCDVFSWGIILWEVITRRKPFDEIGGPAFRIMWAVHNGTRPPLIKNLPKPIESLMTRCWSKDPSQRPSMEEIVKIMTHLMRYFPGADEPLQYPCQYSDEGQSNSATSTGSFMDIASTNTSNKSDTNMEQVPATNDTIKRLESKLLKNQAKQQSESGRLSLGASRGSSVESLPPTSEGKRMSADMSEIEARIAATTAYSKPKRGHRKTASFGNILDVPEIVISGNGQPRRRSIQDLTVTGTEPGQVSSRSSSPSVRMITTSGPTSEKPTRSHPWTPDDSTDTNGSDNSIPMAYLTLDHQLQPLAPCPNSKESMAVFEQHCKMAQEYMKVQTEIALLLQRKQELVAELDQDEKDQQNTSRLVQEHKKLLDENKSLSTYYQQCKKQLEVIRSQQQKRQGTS

## CC(C)=CCc1c(OCCCCNCCN2CCOCC2)ccc2ccc(=O)oc12
[1]
  inhibition: 5.23%
[2]
  Activity: Non-Toxic
[3]
  Activity: Active
[4]
  IC50: 29.7 µM
[5]
  Activity: Active
[6]
  Ratio IC50: 32
[7]
  Tmax: 3.33 h
[8]
  Activity: Active
[9]
  inhibition: Active
[10]
  Activity: Non-Toxic
[11]
  Activity: Non-Toxic
[12]
  Activity: Active
[13]
  inhibition: inactive
[14]
  Activity: Active
[15]
  IC50: 27.4 µM
[16]
  AUC(0-t): 1120 ng·h/mL
